Measured values: the supplement of paper PMC12494721

Experiments:
Settings in all cases: incubation time: 27 h, anaerobic, 37 °C
[1] = system: Klebsiella aerogenes DSM 30053; assay: fold change of Histamine concentration vs plate DMSO controls (fold change (ratio)); higher = more amine produced
Experimental: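 Dose-response follow-up: bacteria (E. coli IAI1, K. aerogenes DSM 30053, C. sporogenes DSM 1664, R. gnavus DSM 108212) were grown anaerobically in mGAM at 37 °C for 27 h with compound at 0.6125-20 µM. Amines were measured in the whole culture by targeted LC-MS/MS. Metabolite fold change and OD595 fold change are relative to plate DMSO controls; n=2 biological replicates. OD fold changes are not clipped, so slightly negative values mean no growth.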

[2] = system: Ruminococcus gnavus DSM 108212; assay: fold change of 2-Phenylethylamine concentration vs plate DMSO controls (fold change (ratio)); higher = more amine produced
[3] = system: Ruminococcus gnavus DSM 108212; assay: fold change of Tryptamine concentration vs plate DMSO controls (fold change (ratio)); higher = more amine produced
[4] = system: Clostridium sporogenes DSM 1664; assay: as above
[5] = system: Klebsiella aerogenes DSM 30053; assay: growth (OD595) fold change vs plate DMSO controls (fold change (ratio)); higher = more growth
[6] = system: Ruminococcus gnavus DSM 108212; assay: as above
[7] = system: Clostridium sporogenes DSM 1664; assay: as above
Escherichia coli IAI1 [8] = assay: as above
[9] = system: Klebsiella aerogenes DSM 30053; assay: fold change of Putrescine concentration vs plate DMSO controls (fold change (ratio)); higher = more amine produced
Escherichia coli IAI1 [10] = assay: as above
[11] = system: Klebsiella aerogenes DSM 30053; assay: fold change of Cadaverine concentration vs plate DMSO controls (fold change (ratio)); higher = more amine produced
Escherichia coli IAI1 [12] = assay: as above

CCn1cc(C(=O)O)c(=O)c2cc(F)c(N3CCNCC3)nc21 [Enoxacin]
fold change of Histamine concentration ([1]; 0.6125 µM): 0.971 | fold change of Histamine concentration ([1]; 1.25 µM): 1.17 | fold change of Histamine concentration ([1]; 2.5 µM): 1.18 | fold change of Histamine concentration ([1]; 5 µM): 0.54 | fold change of Histamine concentration ([1]; 10 µM): 0.252 | fold change of Histamine concentration ([1]; 20 µM): 0.329 | fold change of 2-Phenylethylamine concentration ([2]; 0.6125 µM): 0.788 | fold change of 2-Phenylethylamine concentration ([2]; 1.25 µM): 1.01 | fold change of 2-Phenylethylamine concentration ([2]; 2.5 µM): 1.5 | fold change of 2-Phenylethylamine concentration ([2]; 5 µM): 1.16 | fold change of 2-Phenylethylamine concentration ([2]; 10 µM): 1.04 | fold change of 2-Phenylethylamine concentration ([2]; 20 µM): 1.15 | fold change of Tryptamine concentration ([3]; 0.6125 µM): 0.907 | fold change of Tryptamine concentration ([3]; 1.25 µM): 1.03 | fold change of Tryptamine concentration ([3]; 2.5 µM): 1.98 | fold change of Tryptamine concentration ([3]; 5 µM): 1.5 | fold change of Tryptamine concentration ([3]; 10 µM): 1.3 | fold change of Tryptamine concentration ([3]; 20 µM): 1.47 | fold change of Tryptamine concentration ([4]; 0.6125 µM): 0.988 | fold change of Tryptamine concentration ([4]; 1.25 µM): 0.965 | fold change of Tryptamine concentration ([4]; 2.5 µM): 0.972 | fold change of Tryptamine concentration ([4]; 5 µM): 0.712 | fold change of Tryptamine concentration ([4]; 10 µM): 0.133 | fold change of Tryptamine concentration ([4]; 20 µM): 0.0376 | growth ([5]; 0.6125 µM): 0.845 | growth ([5]; 1.25 µM): 1.25 | growth ([5]; 2.5 µM): 0.554 | growth ([5]; 5 µM): 0.373 | growth ([5]; 10 µM): 0.469 | growth ([5]; 20 µM): 0.328 | growth ([6]; 0.6125 µM): 0.917 | growth ([6]; 1.25 µM): 1.07 | growth ([6]; 2.5 µM): 0.725 | growth ([6]; 5 µM): 0.638 | growth ([6]; 10 µM): 0.638 | growth ([6]; 20 µM): 0.488 | growth ([7]; 0.6125 µM): 1.15 | growth ([7]; 1.25 µM): 1.19 | growth ([7]; 2.5 µM): 1.06 | growth ([7]; 5 µM): 0.904 | growth ([7]; 10 µM): 0.245 | growth ([7]; 20 µM): 0.00474 | growth (Escherichia coli IAI1 [8]; 0.6125 µM): 0.893 | growth (Escherichia coli IAI1 [8]; 1.25 µM): -0.0647 | growth (Escherichia coli IAI1 [8]; 2.5 µM): -0.041 | growth (Escherichia coli IAI1 [8]; 5 µM): 0.063 | growth (Escherichia coli IAI1 [8]; 10 µM): 0.0275 | growth (Escherichia coli IAI1 [8]; 20 µM): -0.0283 | fold change of Putrescine concentration ([9]; 0.6125 µM): 1.03 | fold change of Putrescine concentration ([9]; 1.25 µM): 1.06 | fold change of Putrescine concentration ([9]; 2.5 µM): 1.2 | fold change of Putrescine concentration ([9]; 5 µM): 1.27 | fold change of Putrescine concentration ([9]; 10 µM): 1.3 | fold change of Putrescine concentration ([9]; 20 µM): 1.34 | fold change of Putrescine concentration (Escherichia coli IAI1 [10]; 0.6125 µM): 0.829 | fold change of Putrescine concentration (Escherichia coli IAI1 [10]; 1.25 µM): 0.362 | fold change of Putrescine concentration (Escherichia coli IAI1 [10]; 2.5 µM): 0.557 | fold change of Putrescine concentration (Escherichia coli IAI1 [10]; 5 µM): 0.832 | fold change of Putrescine concentration (Escherichia coli IAI1 [10]; 10 µM): 0.916 | fold change of Putrescine concentration (Escherichia coli IAI1 [10]; 20 µM): 0.993 | fold change of Cadaverine concentration ([11]; 0.6125 µM): 0.977 | fold change of Cadaverine concentration ([11]; 1.25 µM): 0.984 | fold change of Cadaverine concentration ([11]; 2.5 µM): 0.985 | fold change of Cadaverine concentration ([11]; 5 µM): 1.01 | fold change of Cadaverine concentration ([11]; 10 µM): 0.999 | fold change of Cadaverine concentration ([11]; 20 µM): 0.994 | fold change of Cadaverine concentration (Escherichia coli IAI1 [12]; 0.6125 µM): 1.43 | fold change of Cadaverine concentration (Escherichia coli IAI1 [12]; 1.25 µM): 1.6 | fold change of Cadaverine concentration (Escherichia coli IAI1 [12]; 2.5 µM): 1.14 | fold change of Cadaverine concentration (Escherichia coli IAI1 [12]; 5 µM): 0.433 | fold change of Cadaverine concentration (Escherichia coli IAI1 [12]; 10 µM): 0.292 | fold change of Cadaverine concentration (Escherichia coli IAI1 [12]; 20 µM): 0.278

C[C@@H](O)[C@H]1C(=O)N2C(C(=O)O)=C(S[C@@H]3CN[C@H](C(=O)N(C)C)C3)[C@H](C)[C@H]12 [Meropenem]
fold change of Histamine concentration ([1]; 0.6125 µM): 0.953 | fold change of Histamine concentration ([1]; 1.25 µM): 0.643 | fold change of Histamine concentration ([1]; 2.5 µM): 0.612 | fold change of Histamine concentration ([1]; 5 µM): 0.462 | fold change of Histamine concentration ([1]; 10 µM): 0.289 | fold change of Histamine concentration ([1]; 20 µM): 0.227 | fold change of 2-Phenylethylamine concentration ([2]; 0.6125 µM): 0.912 | fold change of 2-Phenylethylamine concentration ([2]; 1.25 µM): 0.801 | fold change of 2-Phenylethylamine concentration ([2]; 2.5 µM): 0.578 | fold change of 2-Phenylethylamine concentration ([2]; 5 µM): 0.185 | fold change of 2-Phenylethylamine concentration ([2]; 10 µM): 0.162 | fold change of 2-Phenylethylamine concentration ([2]; 20 µM): 0.162 | fold change of Tryptamine concentration ([3]; 0.6125 µM): 1.11 | fold change of Tryptamine concentration ([3]; 1.25 µM): 0.93 | fold change of Tryptamine concentration ([3]; 2.5 µM): 0.801 | fold change of Tryptamine concentration ([3]; 5 µM): 0.259 | fold change of Tryptamine concentration ([3]; 10 µM): 0.217 | fold change of Tryptamine concentration ([3]; 20 µM): 0.2 | growth ([5]; 0.6125 µM): 0.844 | growth ([5]; 1.25 µM): 0.992 | growth ([5]; 2.5 µM): 0.894 | growth ([5]; 5 µM): 1.4 | growth ([5]; 10 µM): 0.935 | growth ([5]; 20 µM): 0.363 | growth ([6]; 0.6125 µM): 1.13 | growth ([6]; 1.25 µM): 1.07 | growth ([6]; 2.5 µM): 1.63 | growth ([6]; 5 µM): 1.88 | growth ([6]; 10 µM): 0.41 | growth ([6]; 20 µM): 0.365 | fold change of Putrescine concentration ([9]; 0.6125 µM): 1 | fold change of Putrescine concentration ([9]; 1.25 µM): 1.06 | fold change of Putrescine concentration ([9]; 2.5 µM): 0.976 | fold change of Putrescine concentration ([9]; 5 µM): 1.01 | fold change of Putrescine concentration ([9]; 10 µM): 0.879 | fold change of Putrescine concentration ([9]; 20 µM): 0.667 | fold change of Cadaverine concentration ([11]; 0.6125 µM): 0.982 | fold change of Cadaverine concentration ([11]; 1.25 µM): 1.01 | fold change of Cadaverine concentration ([11]; 2.5 µM): 1 | fold change of Cadaverine concentration ([11]; 5 µM): 1.06 | fold change of Cadaverine concentration ([11]; 10 µM): 1.13 | fold change of Cadaverine concentration ([11]; 20 µM): 1.18

CN1CCN(c2c(F)cc3c(=O)c(C(=O)O)cn4c3c2SCC4)CC1 [Rufloxacin]
fold change of Histamine concentration ([1]; 0.6125 µM): 1.1 | fold change of Histamine concentration ([1]; 1.25 µM): 1.03 | fold change of Histamine concentration ([1]; 2.5 µM): 1.96 | fold change of Histamine concentration ([1]; 5 µM): 0.834 | fold change of Histamine concentration ([1]; 10 µM): 0.211 | fold change of Histamine concentration ([1]; 20 µM): 0.22 | fold change of 2-Phenylethylamine concentration ([2]; 0.6125 µM): 0.871 | fold change of 2-Phenylethylamine concentration ([2]; 1.25 µM): 1.12 | fold change of 2-Phenylethylamine concentration ([2]; 2.5 µM): 2.04 | fold change of 2-Phenylethylamine concentration ([2]; 5 µM): 1.33 | fold change of 2-Phenylethylamine concentration ([2]; 10 µM): 1.22 | fold change of 2-Phenylethylamine concentration ([2]; 20 µM): 1.18 | fold change of Tryptamine concentration ([3]; 0.6125 µM): 0.989 | fold change of Tryptamine concentration ([3]; 1.25 µM): 1.18 | fold change of Tryptamine concentration ([3]; 2.5 µM): 2.02 | fold change of Tryptamine concentration ([3]; 5 µM): 1.51 | fold change of Tryptamine concentration ([3]; 10 µM): 1.24 | fold change of Tryptamine concentration ([3]; 20 µM): 1.16 | fold change of Tryptamine concentration ([4]; 0.6125 µM): 1 | fold change of Tryptamine concentration ([4]; 1.25 µM): 0.994 | fold change of Tryptamine concentration ([4]; 2.5 µM): 0.972 | fold change of Tryptamine concentration ([4]; 5 µM): 0.931 | fold change of Tryptamine concentration ([4]; 10 µM): 0.674 | fold change of Tryptamine concentration ([4]; 20 µM): 0.0448 | growth ([5]; 0.6125 µM): 0.848 | growth ([5]; 1.25 µM): 0.939 | growth ([5]; 2.5 µM): 0.636 | growth ([5]; 5 µM): 0.425 | growth ([5]; 10 µM): 0.466 | growth ([5]; 20 µM): 0.37 | growth ([6]; 0.6125 µM): 1.07 | growth ([6]; 1.25 µM): 0.974 | growth ([6]; 2.5 µM): 0.91 | growth ([6]; 5 µM): 0.61 | growth ([6]; 10 µM): 0.593 | growth ([6]; 20 µM): 0.484 | growth ([7]; 0.6125 µM): 1.09 | growth ([7]; 1.25 µM): 0.879 | growth ([7]; 2.5 µM): 0.898 | growth ([7]; 5 µM): 1.09 | growth ([7]; 10 µM): 0.742 | growth ([7]; 20 µM): 0.0686 | fold change of Putrescine concentration ([9]; 0.6125 µM): 0.99 | fold change of Putrescine concentration ([9]; 1.25 µM): 0.992 | fold change of Putrescine concentration ([9]; 2.5 µM): 1.05 | fold change of Putrescine concentration ([9]; 5 µM): 1.12 | fold change of Putrescine concentration ([9]; 10 µM): 1.19 | fold change of Putrescine concentration ([9]; 20 µM): 1.19 | fold change of Cadaverine concentration ([11]; 0.6125 µM): 0.967 | fold change of Cadaverine concentration ([11]; 1.25 µM): 0.979 | fold change of Cadaverine concentration ([11]; 2.5 µM): 0.981 | fold change of Cadaverine concentration ([11]; 5 µM): 1.03 | fold change of Cadaverine concentration ([11]; 10 µM): 1.09 | fold change of Cadaverine concentration ([11]; 20 µM): 1.12
